Seven compounds from patent publication US9834518B2, “Compounds for inhibiting cell proliferation in EGFR-driven cancers” (ARIAD Pharmaceuticals, Inc., priority 2011, dated 2017) can be followed below.

Where only a bound is given, the exact number is not on record here.

Experiment [1] deals with human EGFR (native sequence) (Homo sapiens, UniProt P00533). The experiment in a line: Kinase inhibition, human EGFR (native sequence). It counts as biochemical. Particulars: 10 μM ATP; 10 pt curves, 3 μM top concentration (singlicates). An outline of the steps: (§1)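 Testing covers a ten-concentration range beginning at 3 μM, performed once per concentration at an ATP level of 10 μM.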
Sequence of human EGFR (native sequence) (P00533 25-1210): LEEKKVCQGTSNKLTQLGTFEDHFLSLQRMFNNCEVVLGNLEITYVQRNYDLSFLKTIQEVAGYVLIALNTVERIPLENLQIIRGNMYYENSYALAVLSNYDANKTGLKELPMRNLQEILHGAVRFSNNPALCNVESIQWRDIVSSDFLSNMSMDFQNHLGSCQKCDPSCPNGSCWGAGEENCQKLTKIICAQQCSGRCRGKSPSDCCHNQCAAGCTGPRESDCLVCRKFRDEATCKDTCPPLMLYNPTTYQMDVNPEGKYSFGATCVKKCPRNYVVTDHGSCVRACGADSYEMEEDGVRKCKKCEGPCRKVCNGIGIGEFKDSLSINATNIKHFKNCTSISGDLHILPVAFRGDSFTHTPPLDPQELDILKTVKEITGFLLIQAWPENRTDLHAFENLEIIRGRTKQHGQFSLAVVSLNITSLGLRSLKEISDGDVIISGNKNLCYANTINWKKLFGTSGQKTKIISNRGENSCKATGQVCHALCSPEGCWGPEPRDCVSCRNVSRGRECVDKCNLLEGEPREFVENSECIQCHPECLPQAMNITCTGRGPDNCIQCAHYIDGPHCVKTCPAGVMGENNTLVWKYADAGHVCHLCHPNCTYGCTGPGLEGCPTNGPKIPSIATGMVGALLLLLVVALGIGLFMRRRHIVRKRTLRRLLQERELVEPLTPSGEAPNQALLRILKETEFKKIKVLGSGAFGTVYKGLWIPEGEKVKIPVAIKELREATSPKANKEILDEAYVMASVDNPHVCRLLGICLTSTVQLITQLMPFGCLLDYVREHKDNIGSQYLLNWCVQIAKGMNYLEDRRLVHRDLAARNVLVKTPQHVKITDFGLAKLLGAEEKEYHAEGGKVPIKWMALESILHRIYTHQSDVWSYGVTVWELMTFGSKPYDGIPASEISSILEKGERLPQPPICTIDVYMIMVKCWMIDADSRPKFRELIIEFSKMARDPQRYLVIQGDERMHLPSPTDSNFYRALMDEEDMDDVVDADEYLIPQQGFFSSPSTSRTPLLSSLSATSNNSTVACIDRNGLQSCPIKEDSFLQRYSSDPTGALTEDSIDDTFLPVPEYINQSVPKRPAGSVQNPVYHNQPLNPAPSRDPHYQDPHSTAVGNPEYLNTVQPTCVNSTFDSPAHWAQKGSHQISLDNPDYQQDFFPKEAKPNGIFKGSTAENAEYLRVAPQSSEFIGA

Experiment [2] deals with EGFR bearing the L858R mution (Homo sapiens, UniProt P00533, L858R). The experiment in a line: Kinase inhibition, EGFR L858R. In kind it is biochemical. Particulars: 10 μM ATP; 10 pt curves, 3 μM top concentration (singlicates). A digest of the protocol:
as §1

The target of experiment [3] is EGFR bearing the L858R/T790M double mutation (Homo sapiens, UniProt P00533, L858R/T790M). The experiment in a line: Kinase inhibition, EGFR L858R/T790M. It counts as biochemical. Particulars: 10 μM ATP; 10 pt curves, 3 μM top concentration (singlicates). An outline of the steps:
as §1

The next experiment has as its system BAF3 PARENTAL
The experiment in a line: Cell proliferation (MTT), BAF3 parental. In kind it is cell-based. To be noted: Mus musculus. Here is the method:
We also assessed the antiproliferative activity of compounds of Formula (I) against BaF3 cells expressing the target EGFR mutations or control (i.e., cell lines expressing wildtype EGFR). Assays were conducted using MTT.

Experiment [4] addresses BAF3 EGFR DEL T790M PURO POOL (Homo sapiens, UniProt P00533, DEL746-750/T790M, cells depend on it). The experiment in a line: Cell proliferation (MTT), BAF3 EGFR DEL T790M. In kind it is cell-based. A digest of the protocol: (§2)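 MTT read-out; BaF3 lines carrying EGFR mutations vs wildtype-EGFR BaF3 control.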
For experiment [5], the system named is BAF3 EGFR L858R-T790M PURO POOL. The experiment in a line: Cell proliferation (MTT), BAF3 EGFR L858R-T790M. In kind it is cell-based. To be noted: Ba/F3 EGFR. A digest of the protocol: as §2

Sequence of EGFR bearing the L858R/T790M double mutation (P00533 25-1210 T790M/L858R): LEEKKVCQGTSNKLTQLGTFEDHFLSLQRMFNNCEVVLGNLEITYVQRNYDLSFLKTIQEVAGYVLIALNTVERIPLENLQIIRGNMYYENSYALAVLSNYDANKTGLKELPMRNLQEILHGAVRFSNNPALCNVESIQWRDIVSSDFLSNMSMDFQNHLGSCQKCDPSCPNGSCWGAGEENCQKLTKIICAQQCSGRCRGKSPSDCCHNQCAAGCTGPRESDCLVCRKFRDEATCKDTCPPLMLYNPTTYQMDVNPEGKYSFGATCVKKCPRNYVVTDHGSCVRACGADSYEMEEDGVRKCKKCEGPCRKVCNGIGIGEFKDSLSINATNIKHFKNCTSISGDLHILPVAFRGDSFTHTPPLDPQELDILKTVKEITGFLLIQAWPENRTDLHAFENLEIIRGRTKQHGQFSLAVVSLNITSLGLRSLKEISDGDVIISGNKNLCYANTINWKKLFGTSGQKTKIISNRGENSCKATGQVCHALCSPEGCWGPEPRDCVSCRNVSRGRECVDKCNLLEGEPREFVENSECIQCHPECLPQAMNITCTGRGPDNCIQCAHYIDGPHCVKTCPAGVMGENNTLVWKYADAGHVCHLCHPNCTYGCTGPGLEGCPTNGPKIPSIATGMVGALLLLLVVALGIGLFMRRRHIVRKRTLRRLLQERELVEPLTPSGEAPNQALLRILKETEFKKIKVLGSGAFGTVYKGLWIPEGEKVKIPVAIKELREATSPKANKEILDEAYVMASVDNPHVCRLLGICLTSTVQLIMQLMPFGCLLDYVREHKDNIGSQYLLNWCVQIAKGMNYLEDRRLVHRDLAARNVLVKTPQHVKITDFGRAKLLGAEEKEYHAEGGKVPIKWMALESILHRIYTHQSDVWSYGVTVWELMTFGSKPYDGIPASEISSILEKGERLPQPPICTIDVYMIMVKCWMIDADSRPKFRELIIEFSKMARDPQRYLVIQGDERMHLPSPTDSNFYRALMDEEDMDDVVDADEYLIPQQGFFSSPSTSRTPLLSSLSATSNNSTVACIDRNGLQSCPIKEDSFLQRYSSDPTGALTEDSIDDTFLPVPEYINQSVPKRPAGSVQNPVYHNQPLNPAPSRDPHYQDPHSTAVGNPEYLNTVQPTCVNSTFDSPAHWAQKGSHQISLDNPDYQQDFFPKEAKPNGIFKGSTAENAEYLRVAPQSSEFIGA
Sequence of BAF3 EGFR DEL T790M PURO POOL (P00533 with tags, fused parts or gaps DEL746-750/T790M): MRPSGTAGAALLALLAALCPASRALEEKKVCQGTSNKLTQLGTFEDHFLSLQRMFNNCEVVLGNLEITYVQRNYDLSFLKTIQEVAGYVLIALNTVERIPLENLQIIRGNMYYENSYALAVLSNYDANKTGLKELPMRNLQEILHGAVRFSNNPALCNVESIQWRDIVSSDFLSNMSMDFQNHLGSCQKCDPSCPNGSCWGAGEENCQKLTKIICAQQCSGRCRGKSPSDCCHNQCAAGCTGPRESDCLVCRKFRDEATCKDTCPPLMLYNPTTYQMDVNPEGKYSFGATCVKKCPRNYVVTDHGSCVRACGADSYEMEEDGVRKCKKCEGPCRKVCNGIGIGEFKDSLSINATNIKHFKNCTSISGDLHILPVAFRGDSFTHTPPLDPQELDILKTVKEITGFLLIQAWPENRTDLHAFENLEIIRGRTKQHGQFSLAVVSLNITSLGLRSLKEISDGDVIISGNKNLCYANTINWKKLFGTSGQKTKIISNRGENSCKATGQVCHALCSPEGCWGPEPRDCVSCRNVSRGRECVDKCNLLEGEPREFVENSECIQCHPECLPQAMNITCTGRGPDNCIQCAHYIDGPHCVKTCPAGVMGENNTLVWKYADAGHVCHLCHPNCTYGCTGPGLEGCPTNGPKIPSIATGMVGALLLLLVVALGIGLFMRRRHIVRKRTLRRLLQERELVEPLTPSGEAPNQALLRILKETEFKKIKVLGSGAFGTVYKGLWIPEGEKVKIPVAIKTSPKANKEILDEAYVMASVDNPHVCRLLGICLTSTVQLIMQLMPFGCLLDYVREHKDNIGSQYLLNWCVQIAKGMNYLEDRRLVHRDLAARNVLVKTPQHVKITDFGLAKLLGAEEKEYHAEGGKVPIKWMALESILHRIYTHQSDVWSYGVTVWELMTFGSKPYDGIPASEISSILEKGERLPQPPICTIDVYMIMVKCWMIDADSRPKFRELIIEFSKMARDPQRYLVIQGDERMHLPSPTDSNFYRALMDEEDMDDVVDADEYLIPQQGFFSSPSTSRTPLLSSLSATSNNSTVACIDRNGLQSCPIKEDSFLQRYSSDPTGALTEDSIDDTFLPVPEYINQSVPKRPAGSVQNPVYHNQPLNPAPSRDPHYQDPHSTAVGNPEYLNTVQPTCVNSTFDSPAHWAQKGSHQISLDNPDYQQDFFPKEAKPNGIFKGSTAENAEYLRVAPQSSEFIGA
Sequence of EGFR bearing the L858R mution (P00533 25-1210 L858R): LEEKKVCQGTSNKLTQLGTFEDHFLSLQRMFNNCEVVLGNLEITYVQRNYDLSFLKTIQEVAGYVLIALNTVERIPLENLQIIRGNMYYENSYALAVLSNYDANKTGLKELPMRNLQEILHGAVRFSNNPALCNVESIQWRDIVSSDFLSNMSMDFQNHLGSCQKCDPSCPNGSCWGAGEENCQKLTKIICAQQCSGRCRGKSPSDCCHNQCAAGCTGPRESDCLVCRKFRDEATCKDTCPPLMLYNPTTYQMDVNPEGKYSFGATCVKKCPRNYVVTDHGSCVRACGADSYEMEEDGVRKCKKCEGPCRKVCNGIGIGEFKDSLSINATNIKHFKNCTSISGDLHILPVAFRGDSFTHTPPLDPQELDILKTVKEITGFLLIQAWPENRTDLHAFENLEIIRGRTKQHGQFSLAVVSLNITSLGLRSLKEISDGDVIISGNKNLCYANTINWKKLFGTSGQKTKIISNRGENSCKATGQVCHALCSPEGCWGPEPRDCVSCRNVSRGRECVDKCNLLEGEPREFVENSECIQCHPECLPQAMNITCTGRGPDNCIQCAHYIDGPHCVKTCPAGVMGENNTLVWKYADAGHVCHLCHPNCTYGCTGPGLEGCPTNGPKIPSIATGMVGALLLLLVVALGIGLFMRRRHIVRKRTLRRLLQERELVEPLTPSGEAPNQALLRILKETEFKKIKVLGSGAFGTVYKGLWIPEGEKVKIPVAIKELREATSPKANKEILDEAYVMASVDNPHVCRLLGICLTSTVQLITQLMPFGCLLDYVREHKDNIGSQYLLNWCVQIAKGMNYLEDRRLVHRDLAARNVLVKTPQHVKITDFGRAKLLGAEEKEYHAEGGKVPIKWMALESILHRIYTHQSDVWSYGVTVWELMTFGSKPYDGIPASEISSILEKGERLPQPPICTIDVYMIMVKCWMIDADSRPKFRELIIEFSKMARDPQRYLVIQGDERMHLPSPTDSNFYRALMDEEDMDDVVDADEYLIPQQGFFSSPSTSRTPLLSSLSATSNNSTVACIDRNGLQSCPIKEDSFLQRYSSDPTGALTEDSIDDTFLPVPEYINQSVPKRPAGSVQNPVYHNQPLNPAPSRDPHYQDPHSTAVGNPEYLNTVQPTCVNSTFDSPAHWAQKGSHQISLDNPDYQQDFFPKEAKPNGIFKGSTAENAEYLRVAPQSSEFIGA

For the compound `C=CC(=O)N(C)c1ccc(OC)c(Nc2ncc(Cl)c(Nc3ccccc3P(C)(C)=O)n2)c1` [Example 44, N-(3-((5-chloro-4-((2-(dimethylphosphoryl)phenyl)amino)pyrimidin-2-yl)amino)-4-methoxyphenyl)-N-methylacrylamide], the IC50 (in general, the midpoint of a concentration-inhibition curve) is 101 to 250 nM in experiment [1]; less than 51 nM in experiment [2]; less than 51 nM in experiment [3]; no less than 250 nM in the experiment with BAF3 PARENTAL; less than 51 nM in experiment [4]; less than 51 nM in experiment [5].
In the case of `C=CC(=O)Nc1cc(Nc2ncc(Cl)c(Nc3ccccc3P(C)(C)=O)n2)c(OC)cc1OCC(COC)N(C)C` (stereo not drawn) [Example 37, N-(5-((5-chloro-4-((2-(dimethylphosphoryl)phenyl)amino)pyrimidin-2-yl)amino)-2-(2-(dimethylamino)-3-methoxypropoxy)-4-methoxyphenyl)acrylamide], the IC50 is less than 51 nM in experiment [1]; less than 51 nM in experiment [2]; less than 51 nM in experiment [3]; no less than 250 nM in the experiment with BAF3 PARENTAL; less than 51 nM in experiment [4]; less than 51 nM in experiment [5].
For the compound `C=CC(=O)Nc1cc(Nc2ncc(Cl)c(Nc3ccccc3P(C)(C)=O)n2)c(OC)cc1CCN(CC)CC` [Example 41, N-(5-((5-chloro-4-((2-(dimethylphosphoryl)phenyl)amino)pyrimidin-2-yl)amino)-2-(2-(diethylamino)ethyl)-4-methoxyphenyl)acrylamide], the IC50 was less than 51 nM in experiment [1]; less than 51 nM in experiment [2]; less than 51 nM in experiment [3]; no less than 250 nM in the experiment on BAF3 PARENTAL; less than 51 nM in experiment [4]; 51 to 100 nM in experiment [5].
Take `C=CC(=O)Nc1cc(Nc2ncc(Cl)c(Nc3ccccc3P(C)(C)=O)n2)c(OC)cc1OC1CCOC1` (stereo not drawn) [Example 24, N-(5-((5-chloro-4-((2-(dimethylphosphoryl)phenyl)amino)pyrimidin-2-yl)amino)-4-methoxy-2-((tetrahydrofuran-3-yl)oxy)phenyl)acrylamide]: the IC50 is no less than 250 nM in experiment [1]; less than 51 nM in experiment [2]; less than 51 nM in experiment [3]; no less than 250 nM in the experiment with BAF3 PARENTAL; no less than 250 nM in experiment [4]; 101 to 250 nM in experiment [5].
Take `C=CC(=O)Nc1cc(Nc2ncc(Cl)c(Nc3ccccc3P(C)(C)=O)n2)c(OC)cc1N(C)CCN(C)CCOC` [Example 38, N-(5-((5-chloro-4-((2-(dimethylphosphoryl)phenyl)amino)pyrimidin-2-yl)amino)-4-methoxy-2-((2-((2-methoxyethyl)(methyl)amino)ethyl)(methyl)amino)phenyl)acrylamide]: the IC50 was less than 51 nM in experiment [1]; less than 51 nM in experiment [2]; less than 51 nM in experiment [3]; no less than 250 nM in the experiment on BAF3 PARENTAL; less than 51 nM in experiment [4]; less than 51 nM in experiment [5].
In the case of `COc1cc(P(C)(C)=O)ccc1Nc1ncc(Cl)c(Oc2cccc(NC(=O)/C=C/CN(C)C)c2)n1` [Example 51, (E)-N-(3-((5-chloro-2-((4-(dimethylphosphoryl)-2-methoxyphenyl)amino)pyrimidin-4-yl)oxy)phenyl)-4-(dimethylamino)but-2-enamide], the IC50 in experiment [1] was 51 to 100 nM; in experiment [2] it was less than 51 nM; in experiment [3] it was less than 51 nM; with BAF3 PARENTAL, no less than 250 nM; in experiment [4], no less than 250 nM; in experiment [5], no less than 250 nM.
On to `C=CC(=O)Nc1cc(Nc2ncc(Cl)c(Nc3ccccc3P(=O)(CC)CC)n2)c(OC)cc1F` [Example 48, N-(5-((5-chloro-4-((2-(diethylphosphoryl)phenyl)amino)pyrimidin-2-yl)amino)-2-fluoro-4-methoxyphenyl)acrylamide], for which the IC50 was less than 51 nM in experiment [1]; less than 51 nM in experiment [2]; less than 51 nM in experiment [3]; no less than 250 nM with BAF3 PARENTAL; less than 51 nM in experiment [4]; less than 51 nM in experiment [5].
